In patent US20230398130A1, “METHODS AND COMPOSITIONS FOR DIFFERENTIATING STEM CELLS” (Massachusetts Institute of Technology, priority 2020, published 2023):

Legend:
ISC-enriched organoids [1] = assay: Primary screen, 384-well 2.5-D organoid differentiation (ENR+CD, 6 days, Target Selective Inhibitor Library, vs whole-plate median): ATP (CellTiter-Glo 3D, CTG); settings: for Dose.FC.CTG (log 2 fold change, ATP): vs plate median; for Dose.FC.CTG: FC vs plate median; for Z.CTG: standard z score of FC
ISC-enriched organoids [2] = assay: Primary screen, 384-well 2.5-D organoid differentiation (ENR+CD, 6 days): carbachol-induced lysozyme secretion (LYZ.S); type: cell-based, murine; settings: for Dose.FC.LYZ.S (log 2 fold change, carbachol-induced lysozyme secretion): vs plate median; for Dose.FC.LYZ.S: FC vs plate median
Excerpt: (§1) High-throughput screening.

ISC-enriched organoids [3] = assay: Primary screen, 384-well 2.5-D organoid differentiation (ENR+CD, 6 days): basal lysozyme secretion (LYZ.NS); type: cell-based, murine; settings: for Dose.FC.LYZ.NS (log 2 fold change, basal lysozyme secretion): vs plate median; for Dose.FC.LYZ.NS: FC vs plate median; for Z.LYZ.NS: standard z score of FC
Excerpt: as §1

| Structure (SMILES) | Z.CTG (standard z score) (ISC-enriched organoids [1]; dose 0.08 uM) | Dose.FC.CTG (log 2 fold change, ATP) (ISC-enriched organoids [1]; dose 0.08 uM) | Z.CTG (standard z score) (ISC-enriched organoids [1]; dose 0.40 uM) | Dose.FC.CTG (log 2 fold change, ATP) (ISC-enriched organoids [1]; dose 0.40 uM) | Z.CTG (standard z score) (ISC-enriched organoids [1]; dose 2.00 uM) | Dose.FC.CTG (log 2 fold change, ATP) (ISC-enriched organoids [1]; dose 2.00 uM) | Z.CTG (standard z score) (ISC-enriched organoids [1]; dose 10.00 uM) | Dose.FC.CTG (log 2 fold change, ATP) (ISC-enriched organoids [1]; dose 10.00 uM) | Dose.FC.LYZ.S (log 2 fold change, carbachol-induced lysozyme secretion) (ISC-enriched organoids [2]; dose 0.08 uM) | Dose.FC.LYZ.S (log 2 fold change, carbachol-induced lysozyme secretion) (ISC-enriched organoids [2]; dose 0.40 uM) | Dose.FC.LYZ.S (log 2 fold change, carbachol-induced lysozyme secretion) (ISC-enriched organoids [2]; dose 2.00 uM) | Dose.FC.LYZ.S (log 2 fold change, carbachol-induced lysozyme secretion) (ISC-enriched organoids [2]; dose 10.00 uM) | Z.LYZ.NS (standard z score) (ISC-enriched organoids [3]; dose 0.08 uM) | Dose.FC.LYZ.NS (log 2 fold change, basal lysozyme secretion) (ISC-enriched organoids [3]; dose 0.08 uM) | Z.LYZ.NS (standard z score) (ISC-enriched organoids [3]; dose 0.40 uM) | Dose.FC.LYZ.NS (log 2 fold change, basal lysozyme secretion) (ISC-enriched organoids [3]; dose 0.40 uM) | Z.LYZ.NS (standard z score) (ISC-enriched organoids [3]; dose 2.00 uM) | Dose.FC.LYZ.NS (log 2 fold change, basal lysozyme secretion) (ISC-enriched organoids [3]; dose 2.00 uM) | Z.LYZ.NS (standard z score) (ISC-enriched organoids [3]; dose 10.00 uM) | Dose.FC.LYZ.NS (log 2 fold change, basal lysozyme secretion) (ISC-enriched organoids [3]; dose 10.00 uM) | other results |
| --- | --- | --- | --- | --- | --- | --- | --- | --- | --- | --- | --- | --- | --- | --- | --- | --- | --- | --- | --- | --- | --- |
| CC(C)(C)c1cc(/C=C(\C#N)C(N)=S)cc(C(C)(C)C)c1O [Tyrphostin AG 879] | −0.828 | −0.347 | −0.569 | −0.238 | −0.554 | −0.232 | −0.879 | −0.368 | −0.083 | −0.084 | −0.051 | −0.123 | 0.088 | 0.010 | −0.680 | −0.078 | −0.698 | −0.080 | −0.960 | −0.110 | – |
| N#C[C@@H]1CCCN1C(=O)CNC12CC3CC(CC(O)(C3)C1)C2 [Vildagliptin (LAF-237)] | 0.553 | 0.232 | 0.547 | 0.229 | 0.358 | 0.150 | 0.811 | 0.339 | 0.099 | 0.113 | 0.038 | 0.013 | 1.285 | 0.148 | 2.004 | 0.230 | 1.478 | 0.170 | 0.846 | 0.097 | – |
| CCN(CC)CCCC(C)Nc1nc(C)cc(Nc2ccc3nc(C)cc(N)c3c2)n1 (centres unmarked) [NSC 23766] | – | – | – | – | – | – | – | – | – | – | – | – | – | – | – | – | – | – | – | – | Dose.FC.CTG (ISC-enriched organoids [1]; Dose 0.08 uM, primary screen): 0.043 log 2 fold change; Z.CTG (ISC-enriched organoids [1]; Dose 0.08 uM): 0.103; Dose.FC.CTG (ISC-enriched organoids [1]; Dose 0.40 uM, primary screen): 0.170 log 2 fold change; Z.CTG (ISC-enriched organoids [1]; Dose 0.40 uM): 0.406; Dose.FC.CTG (ISC-enriched organoids [1]; Dose 2.00 uM, primary screen): 0.117 log 2 fold change; Z.CTG (ISC-enriched organoids [1]; Dose 2.00 uM): 0.279; Dose.FC.CTG (ISC-enriched organoids [1]; Dose 10.00 uM, primary screen): 0.324 log 2 fold change; Z.CTG (ISC-enriched organoids [1]; Dose 10.00 uM): 0.774; Dose.FC.LYZ.S (ISC-enriched organoids [2]; Dose 0.08 uM, primary screen): 0.080 log 2 fold change; Dose.FC.LYZ.S (ISC-enriched organoids [2]; Dose 0.40 uM, primary screen): 0.090 log 2 fold change; Dose.FC.LYZ.S (ISC-enriched organoids [2]; Dose 2.00 uM, primary screen): 0.031 log 2 fold change; Dose.FC.LYZ.S (ISC-enriched organoids [2]; Dose 10.00 uM, primary screen): 0.030 log 2 fold change; Dose.FC.LYZ.NS (ISC-enriched organoids [3]; Dose 0.08 uM, primary screen): 0.081 log 2 fold change; Z.LYZ.NS (ISC-enriched organoids [3]; Dose 0.08 uM): 0.701; Dose.FC.LYZ.NS (ISC-enriched organoids [3]; Dose 0.40 uM, primary screen): 0.044 log 2 fold change; Z.LYZ.NS (ISC-enriched organoids [3]; Dose 0.40 uM): 0.380; Dose.FC.LYZ.NS (ISC-enriched organoids [3]; Dose 2.00 uM, primary screen): 0.058 log 2 fold change; Z.LYZ.NS (ISC-enriched organoids [3]; Dose 2.00 uM): 0.506; Dose.FC.LYZ.NS (ISC-enriched organoids [3]; Dose 10.00 uM, primary screen): 0.009 log 2 fold change; Z.LYZ.NS (ISC-enriched organoids [3]; Dose 10.00 uM): 0.080 |
| CC1C(=O)OC2C(O)C34C5CC(C(C)(C)C)C36C(OC(=O)C6O)OC4(C(=O)O5)C12O (centres unmarked) [Ginkgolide B] | – | – | – | – | – | – | – | – | – | – | – | – | – | – | – | – | – | – | – | – | Dose.FC.CTG (ISC-enriched organoids [1]; Dose 0.08 uM, ENR+CD, 6 days): −0.076 log 2 fold change; Z.CTG (ISC-enriched organoids [1]; Dose 0.08 uM): −0.182; Dose.FC.CTG (ISC-enriched organoids [1]; Dose 0.40 uM, ENR+CD, 6 days): 0.034 log 2 fold change; Z.CTG (ISC-enriched organoids [1]; Dose 0.40 uM): 0.081; Dose.FC.CTG (ISC-enriched organoids [1]; Dose 2.00 uM, ENR+CD, 6 days): −0.154 log 2 fold change; Z.CTG (ISC-enriched organoids [1]; Dose 2.00 uM): −0.369; Dose.FC.CTG (ISC-enriched organoids [1]; Dose 10.00 uM, ENR+CD, 6 days): 0.177 log 2 fold change; Z.CTG (ISC-enriched organoids [1]; Dose 10.00 uM): 0.422; Dose.FC.LYZ.S (ISC-enriched organoids [2]; Dose 0.08 uM, ENR+CD, 6 days): 0.034 log 2 fold change; Dose.FC.LYZ.S (ISC-enriched organoids [2]; Dose 0.40 uM, ENR+CD, 6 days): 0.047 log 2 fold change; Dose.FC.LYZ.S (ISC-enriched organoids [2]; Dose 2.00 uM, ENR+CD, 6 days): 0.033 log 2 fold change; Dose.FC.LYZ.S (ISC-enriched organoids [2]; Dose 10.00 uM, ENR+CD, 6 days): −0.035 log 2 fold change; Dose.FC.LYZ.NS (ISC-enriched organoids [3]; Dose 0.08 uM, ENR+CD, 6 days): 0.041 log 2 fold change; Z.LYZ.NS (ISC-enriched organoids [3]; Dose 0.08 uM): 0.353; Dose.FC.LYZ.NS (ISC-enriched organoids [3]; Dose 0.40 uM, ENR+CD, 6 days): 0.109 log 2 fold change; Z.LYZ.NS (ISC-enriched organoids [3]; Dose 0.40 uM): 0.950; Dose.FC.LYZ.NS (ISC-enriched organoids [3]; Dose 2.00 uM, ENR+CD, 6 days): 0.061 log 2 fold change; Z.LYZ.NS (ISC-enriched organoids [3]; Dose 2.00 uM): 0.528; Dose.FC.LYZ.NS (ISC-enriched organoids [3]; Dose 10.00 uM, ENR+CD, 6 days): −0.037 log 2 fold change; Z.LYZ.NS (ISC-enriched organoids [3]; Dose 10.00 uM): −0.326 |
